Measured values published in patent US6399828B1, “Preparation of amphetamines from phenylpropanolamines” (Boehringer Ingelheim Chemicals, Inc., priority 2001, dated 2002).

Key:
[1] = Solubility of O-acetylnorephedrine hydrochloride in water (Experiment X)
[2] = Stability of O-acetylnorephedrine hydrochloride stirred with water (rearrangement to N-acetylnorephedrine), HPLC analyses; assay type: physicochemical
Method: Ammonium formate appears to catalyze the rearrangement of O-acetylnorephedrine hydrochloride to N-acetylnorephedrine. Three samples of O-acetylnorephedrine hydrochloride (Experiment Z recrystallized) were stirred with water for six hours respectively at room temperature, at 60° C., and at 60° C. with ammonium formate added. Samples were taken at intervals for HPLC analyses. […] At 60° C., the percentage of O-acetylnorephedrine hydrochloride decreased from 99.18 to 97.79 with the percentage of N-acetylnorephedrine increasing from 0.21% to 1.1% over a 6 hour period. […] The catalytic hydrogenation route therefore appears to be preferable to catalytic transfer hydrogenation in view of the induction period, gas evolution, and rearrangement potential.

Compound: CC(=O)OC(c1ccccc1)C(C)N.Cl (stereo not shown) [O-acetylnorephedrine hydrochloride, 2-Amino-1-acetoxy1-phenylpropane Hydrochloride]
- solubility in water [1]: 5.5 mL/g
- percentage of O-acetylnorephedrine hydrochloride ([2]; water with ammonium formate, 60° C., by 6 hours): 77.20%
- percentage of O-acetylnorephedrine hydrochloride ([2]; water with ammonium formate, 60° C., within 30 minutes): 91.23%
- percentage of O-acetylnorephedrine hydrochloride ([2]; water, 60° C., after 6 hours): 97.79%
- percentage of O-acetylnorephedrine hydrochloride ([2]; water, 60° C., start): 99.18%
- percentage of O-acetylnorephedrine hydrochloride ([2]; water, room temperature, after 6 hours): 99.12%
- percentage of O-acetylnorephedrine hydrochloride ([2]; water, room temperature, start): 99.30%
